Marks after values point to notes of the source that are not given here.
What was measured:
hHINT1 = hHINT1 (Homo sapiens, UniProt P49773); assay: Catalytic activity (velocity) of cloned, purified phosphoramidase with AMPNH2; format: biochemical
From the text: The enzyme responsible for hydrolysis of AZT amino acid phosphoramidates was cloned and characterized. After construction of a cDNA library from peripheral blood mononuclear cells (PBMCs) in T7Select10-3b phage, the phage display technique was employed to isolate the enzyme by affinity chromatography. After three rounds of phage selection and ampilification with an affinity column constructed from the L-tryptophan carbamate, DNA from ten selected plaques was amplified by PCR and sequenced. […] Hint1 is a member of the HIT protein superfamily, which consists of a recently identified adenosine 5′-monophosphoramide hydrolases from rabbit and yeast.
Velocity of the enzymes was determined at pH 7.2 at room temperature in the presence of 10 mM AMPNH2.

[1] = Low pH control: chemical stability in pH 2.0 buffer by 31P NMR; format: physicochemical; details: 10 mM, 37° C.
Experimental: (§1) Cell lysates from E. coli Tuner(DE3)pLacI cells (Novagen) were obtained by treatment with lysozyme (1 mg/ml) and the DNA was precipitated by protamine sulfate followed by centrifugation to remove cell debris. The supernatant was dialyzed extensively against Buffer A (20 mM Tris (pH 7.0); 1 mM EDTA; 1 mM DTT, 0.01 mM PMSF) to remove cellular phosphates and nucleotides. Phosphate free cell lysates (0.75 mg total protein) were incubated with 5 mM AMP-NH2 in 0.5 ml reaction buffer (0.5 mM MgCl2, 20 mM HEPES (pH 7.2)) at 37° C. for intervals of 15 min, 30 min, and 12 h. The reactions were terminated by snap freezing in a dry ice/acetone slush bath and lyophilized for 5 h. The samples were then dissolved in NMR buffer (600 μL, 50 mM EDTA, 20 mM HEPES (pH 7.2), and 1 mM TMP (trimethylphosphate, internal standard)) and the insoluble portion was spun down by centrifugation at 12,500×g for 5 min. A ^31P NMR spectrum was then collected for the supernatant. For the low pH control experiment, 10 mM AMP-NH2 in reaction buffer (500 μL, pH 2.0) was incubated at 37° C. for 12 h and the 31p signal was detected under the same conditions.
Tuner(DE3)pLacI, a modified E. coli BL21 strain, was used to determine phosphoramidase activity in cell lysates. […]

Human Hint1-DHFR = molecular target: T1, Human Hint1-DHFR (UniProt P0ABQ4+P49773); assay: 31P NMR phosphoramidase assay of purified protein; format: biochemical; details: 10 mM substrate, pH 7.2, 22° C.
T1 construct: made in house; host or cells: E. coli (following the procedure for the hinT plasmid)
Experimental: (§2) Phosphoramidase activity in cell lysates was measured by the ^1H-decoupling mode of phosphorus-31 NMR spectroscopy (Varian VAC-300 spectrometer), which can clearly distinguish the substrate, AMP-NH2, and the product, adenosine 5′-monophosphate (AMP). NMR spectrometry is suitable for quantitation by integration of the area under the peak, which is proportional to the amount of nuclei present. The relative ratio of peak areas can be used to calculate the amount of turnover corrected based on a standard curve.
as §1
(§3) Five recombinant purified proteins were tested with three commercial available compounds (Sigma): AMP-NH2, adenosine 5′-monophosphomorpholidate (AMP-Mor), and guanosine 5′-monophosphomorpholidate (GMP-Mor) (FIG. 1). The compounds (10 mM) were incubated with proteins (2.5-10 μg) in the reaction buffer (500 μL, 0.5 mM MgCl2, 20 mM HEPES (pH 7.2)) at 22° C. for intervals of 36 and 66 min. The reactions were quenched by adding 5 M NaOH (20 μL), followed by snap freezing in a dry ice/acetone slush bath, and lyophilized. The sample preparation for ^31P NMR measurement was as described above for the cell-lysate experiment except that the pH was adjusted by the addition of 12 μL 6 M HCl before NMR spectra were collected.

Rabbit HINT1 [2] = molecular target: T2, Rabbit HINT1 (Oryctolagus cuniculus, UniProt P80912); assay: 31P NMR phosphoramidase assay of purified protein; format: biochemical; details: 10 mM substrate, pH 7.2, 22° C.
T2 construct: made in house; host or cells: E. coli hinT deletion mutant
Experimental: as §2, §1, §3

Rabbit HINT1 [3] = molecular target: T2, Rabbit HINT1; details: Bieganowski et al, 2002; cited from earlier work
[4] = molecular target: T3, BL21 Star (WT) cell lysates (Escherichia coli, UniProt P0ACE7); assay: 31P NMR phosphoramidase activity in cell lysates; format: biochemical, E. coli; details: for Specific activity: 0.5 mg protein
T3 construct: endogenous in cells; host or cells: E. coli BL21 Star
Experimental: as §2
as §1, with “Phosphate free cell lysates (0.75 mg total protein) were incubated with 5 mM AMP-NH2 in 0.5 ml reaction buffer (0.5 mM MgCl2, 20 mM HEPES (pH 7.2)) at 37° C. for intervals of 15 min, 30 min, and 12 h.” left out
To determine if E. coli hinT is solely responsible of the observed lysates' phosphoramidase activity, a mutant strain, BB1, in which the hinT gene was replace with the chloramphenicol resistance marker, was constructed. The phosphoramidase activities of the wild-type E. coli BL21 Star strain and the mutant strain lysates were determined (Table 3). […] (Table 2). Therefore, the adenosine phosphoramidase activity observed for E. coli cell lysates appears to be totally dependent on hinT.

Nc1ncnc2c1ncn2[C@@H]1O[C@H](COP(N)(=O)O)[C@@H](O)[C@H]1O [AMP-NH2, Adenosine 5′-monophosphoramidate]
Hydrolysis by over-expressed, purified human Hint1 (hHINT1): efficiently hydrolyze
Velocity (hHINT1; pH 7.2, room temperature, 10 mM AMPNH2): 5.46 nmol/µg/min
Stability at pH 2.0 (no detectable AMP or Pi) [1]: at least 12 h
Specific activity (Human Hint1-DHFR): 388 ± 45 nmol nmol^−1 min^−1
Specific activity (Rabbit HINT1 [2]): 70.0 ± 1.3 nmol nmol^−1 min^−1
Velocity (Rabbit HINT1 [3]): 1.71^b nmol/μg/min
Specific activity of BL21 Star WT cell lysates [4]: 20.1 (±7.7) nmol mg^−1 min^−1
Specific activity ([4]; 30 min): 15.5 nmol/mg/min
Specific activity ([4]; 70 min): 26.4 nmol/mg/min
Average specific activity ([4]; average): 20.95 ± 7.71 nmol/mg/min
